By IC50 is commonly meant the concentration that gives 50% inhibition. The term melting point denotes the temperature of the solid-liquid transition.

Here are results for 17 compounds from PMC5904222, “Synthesis and anticancer activity of multisubstituted purines and xanthines with one or two propynylthio and aminobutynylthio groups” (Medicinal Chemistry Research, 2018).

Each structure is given as a SMILES string. Values after ≈ are worked out from the molar mass of the structure shown.

Series [1] relates to SNB-19 (human glioblastoma). The experiment in a line: WST-1 proliferation assay, SNB-19. The series is classed as cell-based. The settings on record: SNB-19 cells, 72 h exposure; for IC50: Homo sapiens, SNB-19, 72 h, read-out: Antiproliferative activity IC50 SNB-19. The procedure:
(§1) Compounds were evaluated for their anticancer activity using three cultured cell lines: SNB-19 (human glioblastoma, DSMZ - German Collection of Microorganisms and Cell Cultures, Braunschweig, Germany), C-32 (human amelanotic melanoma, ATCC-American Type Culture Collection, Manassas, VA, USA), MDA-MB-231 (human adenocarcinoma mammary gland, ATCC, Manassas, VA, USA), and HFF-1 (human fibroblast cell line, ATCC, Manassas, VA, USA). The cultured cells were kept at 37 °C and 5% CO2. The cells were seeded (1 × 10^4 cells/well/100 μL DMEM supplemented with 10% FCS and streptomycin and penicillin) using 96-well plates (Corning). The cells were counted in a hemocytometer (Burker’s chamber) using a phase contrast Olympus IX50 microscope equipped with Sony SSC-DC58 AP camera and Olympus DP10 digital camera.
(§2) The antiproliferative effect of the compounds obtained from both the cancer and the normal cells was determined using the Cell Proliferation Reagent WST-1 assay (Roche Diagnostics, Mannheim, Germany). This colorimetric assay is based on the viable cell’s ability to cause the bright red-colored stable tetrazolium salt (2-(4-iodophenyl)-3-(4-nitrophenyl)-5-(2,4-disulfophenyl)-2H-tetrazolium, monosodium salt) to cleave to the dark red soluble formazan by cellular enzymes. An expansion in the number of viable cells results in an increase in the overall activity of mitochondrial dehydrogenases in the sample. An increase in the amount of formazan dye formed correlates to the number of metabolically active cells in the culture. The formazan dye produced by metabolically active cells is quantified by a scanning ELISA reader that measures the absorbance of the dye solution at appropriate wavelengths. The examined cells were exposed to the tested compounds for 72 h at various concentrations between 0.1 and 100 μg/mL (prepared initially at a concentration of 1 mg/mL in DMSO). The control was performed in order to check that DMSO has no effect on the cells at the concentration used. The cells were incubated with WST-1 (10 μL) for 1 h and the absorbance of the samples was measured against a background control at 450 nm using a microplate reader with a reference wavelength at 600 nm. The results are expressed as the means of at least two independent experiments performed in triplicate. […] The IC50 values (a concentration of a compound that is required for 50% inhibition) were calculated from the dose–response relationship with respect to control.
(Tetrazolium assays rely on reduction of a dye to a coloured formazan, in cell work by metabolically active cells.)

Series [2] concerns C-32 (human amelanotic melanoma). Nature of the series: WST-1 proliferation assay, C-32. The settings on record: C-32 cells, 72 h exposure; for IC50: Homo sapiens, C32, 72 h, read-out: Antiproliferative activity IC50 C-32. Format: cell-based. How it is done: as §1, §2
Series [3] deals with MDA-MB-231 (human adenocarcinoma mammary gland). Nature of the series: WST-1 proliferation assay, MDA-MB-231. The series is classed as cell-based. The conditions noted are these: MDA-MB-231 cells, 72 h exposure; for IC50: Homo sapiens, MDA-MB-231, 72 h, read-out: Antiproliferative activity IC50 MDA-MB-231. The procedure: as §1, §2
The subject of series [4] is HFF-1 (human fibroblast cell line). The experiment in a line: WST-1 proliferation assay, normal fibroblasts HFF-1. Format: cell-based. The conditions noted are these: for IC50: read-out: Antiproliferative activity IC50 HFF-1. The procedure: as §1
as §2, with “The control was performed in order to check that DMSO has no effect on the cells at the concentration used.” left out

[5] abbreviates: normal human fibroblasts HFF-1, 72 h exposure, WST-1.

`N.N.[Cl][Pt][Cl]` [Cisplatin, cisplatin, reference compound]: in series [1], the “Antiproliferative activity IC50 SNB-19” value was found to be 1.46 µg/mL. Also, the “Antiproliferative activity IC50 C-32” value in series [2] worked out at 5.71 µg/mL. In series [3], the “Antiproliferative activity IC50 MDA-MB-231” value amounted to 11.85 µg/mL. Also, the “Antiproliferative activity IC50 HFF-1” value in series [4] (setting [5]) came out at 1.21 µg/mL.

For the compound `Cn1cnc2nc(Cl)nc(SCC#CCN3CCCCC3)c21` [Compound 2a, 2-Chloro-6-(4-N-piperidinylbut-2-ynylthio)-7-methylpurine], the melting point was 122 to 124 °C. In series [1], the IC50 came out at 28.8 µg/mL (≈ 85.7 µM). In series [2], the IC50 was found to be 21 µg/mL (≈ 62.6 µM). Besides, the IC50 in series [3] stood at 33.4 µg/mL (≈ 99.4 µM). In series [4] (setting [5]), the IC50 is 35.4 µg/mL (≈ 105 µM).

Turning to `Cn1cnc2nc(Cl)nc(SCC#CCN3CCOCC3)c21` [Compound 2b, 2-Chloro-6-(4-N-morpholinylbut-2-ynylthio)-7-methylpurine], the melting point is 168 to 169 °C. Moreover, the IC50 in series [1] was 35.4 µg/mL (≈ 105 µM). Also, the IC50 in series [2] is 125 µg/mL (≈ 370 µM). Further, the IC50 in series [3] was determined as 66.3 µg/mL (≈ 196 µM). Besides, in series [4] (setting [5]), the IC50 came to 20.1 µg/mL (≈ 59.5 µM).

On to `CCN(CC)CC#CCSc1nc(Cl)nc2ncn(C)c12` [Compound 2c, 2-Chloro-6-(4-diethylaminobut-2-ynylthio)-7-methylpurine], for which the melting point lay within 117 to 118 °C. Moreover, the IC50 in series [1] came out at 17.4 µg/mL (≈ 53.7 µM). Also, the IC50 in series [2] is 11.9 µg/mL (≈ 36.7 µM). Besides, the IC50 in series [3] came to 48.1 µg/mL (≈ 148 µM). Further, the IC50 in series [4] (setting [5]) was 8.65 µg/mL (≈ 26.7 µM).

Consider `C#CCSc1nc(SCC#C)c2c(ncn2C)n1` [Compound 4, 2,6-di(prop-2-ynylthio)-7-methylpurine], for which the melting point was 162 to 164 °C. Besides, the IC50 in series [1] stood at 15 µg/mL (≈ 54.7 µM). Besides, the “cytotoxicity on the normal human fibroblasts (HFF-1), in words” value (“cytotoxicity” for short) in series [4] was “relatively weak cytotoxicity”. Moreover, in series [4] (setting [5]), the IC50 came to 10 µg/mL (≈ 36.4 µM).

`Cn1cnc2nc(SCC#CCN3CCCC3)nc(SCC#CCN3CCCC3)c21` [Compound 5a, 2,6-Di(4-N-pyrrolidinylbut-2-ynylthio)-7-methylpurine] yielded a melting point of 97 to 99 °C. The IC50 in series [1] worked out at 19.4 µg/mL (≈ 44 µM). Further, the IC50 in series [2] turned out to be 6.81 µg/mL (≈ 15.5 µM). Further, the IC50 in series [3] turned out to be 19.9 µg/mL (≈ 45.3 µM). For the same compound, in series [4] (setting [5]), the IC50 was 10 µg/mL (≈ 22.7 µM).

In turn, `Cn1cnc2nc(SCC#CCN3CCCCC3)nc(SCC#CCN3CCCCC3)c21` [Compound 5b, 2,6-Di(4-N-piperidinylbut-2-ynylthio)-7-methylpurine] gave a melting point of 130 to 132 °C. In series [1], the IC50 is 4.64 µg/mL (≈ 9.9 µM). The IC50 in series [2] came out at 6.39 µg/mL (≈ 13.6 µM). Further, in series [3], the IC50 stood at 7.35 µg/mL (≈ 15.7 µM). In addition, the IC50 in series [4] (setting [5]) turned out to be 3.98 µg/mL (≈ 8.49 µM).

In turn, `Cn1cnc2nc(SCC#CCN3CCOCC3)nc(SCC#CCN3CCOCC3)c21` [Compound 5c, 2,6-Di(4-N-morpholinylbut-2-ynylthio)-7-methylpurine] gave a melting point of 121 to 123 °C. The IC50 in series [1] was found to be 21.5 µg/mL (≈ 45.6 µM). The IC50 in series [2] came to 0.35 µg/mL (≈ 0.741 µM). Also, in series [3], the IC50 was found to be 50.8 µg/mL (≈ 107 µM). In addition, in series [4] (setting [5]), the IC50 came to 0.37 µg/mL (≈ 0.783 µM).

Turning to `CCN(CC)CC#CCSc1nc(SCC#CCN(CC)CC)c2c(ncn2C)n1` [Compound 5d, 2,6-Di(4-diethylaminobut-2-ynylthio)-7-methylpurine], the melting point was in the range of 77 to 79 °C. Further, the IC50 in series [1] turned out to be 48.9 µg/mL (≈ 110 µM). Further, the IC50 in series [2] is 23.9 µg/mL (≈ 53.7 µM). Also, in series [3], the IC50 was 38.5 µg/mL (≈ 86.6 µM). The IC50 in series [4] (setting [5]) came out at 5.95 µg/mL (≈ 13.4 µM).

Take `C#CCSc1nc2c(c(=O)[nH]c(=O)n2C)n1C` [Compound 9, 8-(prop-2-ynylthio)-3,7-dimethylxanthine]: the melting point fell in the range of 252 to 253 °C. In series [1], the IC50 was over 100 µg/mL and the “Antiproliferative activity IC50 SNB-19” value came to 191.10 µg/mL. In addition, in series [2], the “Antiproliferative activity IC50 C-32” value worked out at 103.46 µg/mL and the IC50 was over 100 µg/mL. In addition, in series [3], the IC50 is over 100 µg/mL and the “Antiproliferative activity IC50 MDA-MB-231” value amounted to 169.34 µg/mL. The IC50 in series [4] (setting [5]) was determined as 154 µg/mL (≈ 614 µM).

Compound `Cn1c(SCC#CCN2CCCC2)nc2c1c(=O)[nH]c(=O)n2C` [Compound 10a, 8-(4-N-pyrrolidinylbut-2-ynylthio)-3,7-dimethylxanthine] came in with a melting point of 195 to 197 °C. In addition, the IC50 in series [1] turned out to be 177 µg/mL (≈ 530 µM). In series [2], the IC50 stood at 51.1 µg/mL (≈ 153 µM). In series [3], the IC50 was found to be 472 µg/mL (≈ 1410 µM). Further, the IC50 in series [4] (setting [5]) worked out at 34.3 µg/mL (≈ 103 µM).

In turn, `Cn1c(SCC#CCN2CCCCC2)nc2c1c(=O)[nH]c(=O)n2C` [Compound 10b, 8-(4-N-piperidinylbut-2-ynylthio)-3,7-dimethylxanthine] registered a melting point of 223 to 225 °C. The IC50 in series [1] was determined as 166 µg/mL (≈ 478 µM). Also, in series [2], the IC50 amounted to 355 µg/mL (≈ 1020 µM). Moreover, the IC50 in series [3] was determined as 364 µg/mL (≈ 1050 µM). Further, in series [4] (setting [5]), the IC50 came to 30.4 µg/mL (≈ 87.5 µM).

With `Cn1c(SCC#CCN2CCOCC2)nc2c1c(=O)[nH]c(=O)n2C` [Compound 10c, 8-(4-N-morpholinylbut-2-ynylthio)-3,7-dimethylxanthine], the melting point lay within 174 to 176 °C. Moreover, in series [1], the IC50 is under 1.7 µg/mL and the “Antiproliferative activity IC50 SNB-19” value is 1.69 µg/mL. In addition, the IC50 in series [2] was 223 µg/mL (≈ 637 µM). For the same compound, the IC50 in series [3] worked out at 6.54 µg/mL (≈ 18.7 µM). The IC50 in series [4] (setting [5]) was determined as 5.87 µg/mL (≈ 16.8 µM).

Take `CCN(CC)CC#CCSc1nc2c(c(=O)[nH]c(=O)n2C)n1C` [Compound 10d, 8-(4-diethylaminobut-2-ynylthio)-3,7-dimethylxanthine]: the melting point lay within 186 to 188 °C. In addition, in series [1], the IC50 is under 1.7 µg/mL and the “Antiproliferative activity IC50 SNB-19” value came to 1.48 µg/mL. Besides, the IC50 in series [2] was 26.4 µg/mL (≈ 78.6 µM). The IC50 in series [3] is 68.1 µg/mL (≈ 203 µM). Also, in series [4] (setting [5]), the IC50 worked out at 3.68 µg/mL (≈ 11 µM).

For `C#CCSc1nc(Cl)nc2nc(SCC#C)n(C)c12` [Compound 14, 2-chloro-6,8-di(prop-2-ynylthio)-7-methylpurine], the melting point is 161 to 163 °C. The IC50 in series [2] is 270 µg/mL (≈ 875 µM). The IC50 in series [3] worked out at 10 µg/mL (≈ 32.4 µM). Besides, in series [4], the “cytotoxicity” value was “relatively weak cytotoxicity”. In series [4] (setting [5]), the IC50 is 20.1 µg/mL (≈ 65.1 µM).

In the case of `Cn1c(SCC#CCN2CCCC2)nc2nc(Cl)nc(SCC#CCN3CCCC3)c21` [Compound 15a, 2-Chloro-6,8-di(4-N-pyrrolidinylbut-2-ynylthio)-7-methylpurine], the melting point fell in the range of 133 to 135 °C. For the same compound, in series [1], the IC50 is under 1 µg/mL and the “Antiproliferative activity IC50 SNB-19” value was 0.52 µg/mL. Besides, in series [2], the “Antiproliferative activity IC50 C-32” value worked out at 4.55 µg/mL and the IC50 lay in the range of 3.8 to 4.5 µg/mL (≈ 8 to 9.47 µM). Moreover, in series [3], the IC50 was in the range of 3.8 to 4.5 µg/mL (≈ 8 to 9.47 µM) and the “Antiproliferative activity IC50 MDA-MB-231” value was 3.83 µg/mL. Also, the IC50 in series [4] (setting [5]) was determined as 3.63 µg/mL (≈ 7.64 µM).

On to `Cn1c(SCC#CCN2CCOCC2)nc2nc(Cl)nc(SCC#CCN3CCOCC3)c21` [Compound 15c, 2-Chloro-6,8-di(4-N-morpholinylbut-2-ynylthio)-7-methylpurine], for which the melting point was in the range of 112 to 113 °C. In series [1], the IC50 stood at 26.1 µg/mL (≈ 51.5 µM). The IC50 in series [3] came out at 74 µg/mL (≈ 146 µM). The “cytotoxicity” value in series [4] was “relatively weak cytotoxicity”. For the same compound, the IC50 in series [4] (setting [5]) was 36.4 µg/mL (≈ 71.7 µM).
